Starred links: 1 amine or outer side, 2 acyl side, 3 side chain; linkers in the order of their positions; H or OH if unused. Non-standard residues stand in square brackets, D forms with d. Residues, ends and D or L forms follow the SMILES beside them. *: point of attachment. Phe(4-Cl) = N[C@@H](Cc1ccc(Cl)cc1)C(=O)O; γGlu = O=C(O)[C@H](CCC(=O)[*:2])N[*:1]; NMeR = CN[C@@H](CCCNC(=N)N)C(=O)O; Tridecanoyl = CCCCCCCCCCCCC(=O)*; hArg = N=C(N)NCCCC[C@H](N)C(=O)O; Cha = N[C@@H](CC1CCCCC1)C(=O)O; β3hV = CC(C)[C@H](N)CC(=O)O; Pip = O=C(O)[C@@H]1CCCCN1; Nle = CCCC[C@H](N)C(=O)O; AEEA = NCCOCCOCC(=O)O; Aib = CC(C)(N)C(=O)O; βAla = NCCC(=O)O
How the values were obtained:
[1] = In vitro stability in rat liver homogenate; type: in vitro ADME; details: tissue homogenate
Protocol: (§1) Apelin peptides were spiked into rat plasma, liver homogenate, and kidney homogenate, which were obtained from commercial sources, to a final concentration of 5 μM. The samples were then incubated at 37° C. over a period of 4 hr. […] In a typical experiment, an aliquot of 100 μL of sample was taken from the incubation vial, followed by addition of 300 μL of MeOH containing internal standard. The quenched sample was centrifuged at 5500 g for 15 min after 15 min vortex in room temperature. The supernatant was then analyzed by high resolution LC-MS. […] In vitro plasma, […], and kidney stability results are shown below in Table 14.

[2] = In vitro stability in rat plasma; type: in vitro ADME
Protocol: as §1

SMILES | remaining at 4 h, 5 μM [1] [%] | remaining at 4 h, 5 μM [2] [%]
CCCCCCCCCCCCC(=O)N[C@@H](CCC(=O)NCCOCCOCC(=O)NCCOCCOCC(=O)N[C@@H](CCC(N)=O)C(=O)N[C@@H](CCCNC(=N)N)C(=O)N1CCC[C@H]1C(=O)N(C)[C@@H](CCCNC(=N)N)C(=O)N[C@@H](CC(C)C)C(=O)N[C@@H](CO)C(=O)N[C@@H](Cc1c[nH]cn1)C(=O)N[C@@H](CCCCN)C(=O)NCC(=O)N1CCC[C@H]1C(=O)N[C@@H](CCCC)C(=O)N1CCC[C@H]1CC(=O)N[C@@H](Cc1ccc(Cl)cc1)C(=O)O)C(=O)O [compound 426] | < 1 | 33
CSCC[C@H](NC(=O)[C@@H](N)CS)C(=O)N1CCC[C@H]1C(=O)N[C@@H](CC(C)C)C(=O)N[C@@H](Cc1cnc[nH]1)C(=O)N[C@@H](CO)C(=O)N[C@@H](CCCNC(=N)N)C(=O)N[C@H](C(=O)N1CCC[C@H]1C(=O)N[C@@H](Cc1ccccc1)C(=O)N1CCC[C@H]1C(=O)O)C(C)C [compound 13] | < 1 | 7
CCCCCCCCCCCCC(=O)N[C@@H](CCC(=O)NCCOCCOCC(=O)NCCOCCOCC(=O)N[C@@H](CCC(N)=O)C(=O)N[C@@H](CCCNC(=N)N)C(=O)N1CCC[C@H]1C(=O)N[C@@H](CCCCNC(=N)N)C(=O)N[C@@H](CC(C)C)C(=O)N[C@@H](CO)C(=O)N[C@@H](Cc1c[nH]cn1)C(=O)N[C@@H](CCCCN)C(=O)NCC(=O)N1CCC[C@H]1C(=O)N[C@@H](CCCC)C(=O)N1CCC[C@H]1C(=O)N[C@@H](Cc1ccc(Cl)cc1)C(=O)O)C(=O)O [compound 355] | 0 | 64
CCCCCCCCCCCCC(=O)N[C@@H](CCC(=O)NCCOCCOCC(=O)NCCOCCOCC(=O)N[C@@H](CCC(N)=O)C(=O)N(C)[C@@H](CCCCNC(=N)N)C(=O)N1CCC[C@H]1C(=O)N(C)[C@@H](CCCNC(=N)N)C(=O)N[C@@](C)(CC(C)C)C(=O)N[C@@H](CO)C(=O)N[C@@H](Cc1c[nH]cn1)C(=O)N[C@@H](CCCCN)C(=O)NCC(=O)N1CCC[C@H]1C(=O)N[C@@H](CCCC)C(=O)N1CCC[C@H]1C(=O)N[C@@H](Cc1ccc(Cl)cc1)C(=O)O)C(=O)O [compound 484] | < 1 | 79
CCCCCCCCCCCCC(=O)N[C@@H](CCC(=O)NCCOCCOCC(=O)NCCOCCOCC(=O)N[C@H](CCC(N)=O)C(=O)N[C@@H](CCCNC(=N)N)C(=O)N1CCC[C@H]1C(=O)N(C)[C@@H](CCCNC(=N)N)C(=O)N[C@@H](CC1CCCCC1)C(=O)N[C@@H](CO)C(=O)N[C@@H](Cc1c[nH]cn1)C(=O)N[C@@H](CCCCN)C(=O)NCC(=O)N1CCCC[C@H]1C(=O)N[C@@H](CCCC)C(=O)NC(C)(C)C(=O)N[C@@H](Cc1ccc(Cl)cc1)C(=O)O)C(=O)O [compound 499] ({Tridecanoyl-γGlu-AEEA-AEEA}-[dQ]RP[NMeR][Cha]SHKG[Pip][Nle][Aib][Phe(4-Cl)]-OH) | < 1 | > 90
CCCCCCCCCCCCC(=O)N[C@@H](CCC(=O)NCCOCCOCC(=O)NCCOCCOCC(=O)N[C@@H](CCC(N)=O)C(=O)N[C@@H](CCCNC(=N)N)C(=O)N1CCC[C@H]1C(=O)N(C)[C@@H](CCCNC(=N)N)C(=O)N[C@@](C)(CC(C)C)C(=O)N[C@@H](CO)C(=O)N[C@@H](Cc1c[nH]cn1)C(=O)N[C@@H](CCCCN)C(=O)NCC(=O)N1CCC[C@H]1C(=O)N[C@@H](CCCC)C(=O)N1CCC[C@H]1C(=O)N[C@@H](Cc1ccc(Cl)cc1)C(=O)O)C(=O)O [compound 457] | < 1 | 62
CCCCCCCCCCCCC(=O)N[C@@H](CCC(=O)NCCOCCOCC(=O)NCCOCCOCC(=O)N[C@H](CCC(N)=O)C(=O)N[C@@H](CCCNC(=N)N)C(=O)N1CCC[C@H]1C(=O)N(C)[C@@H](CCCNC(=N)N)C(=O)N[C@@](C)(CC(C)C)C(=O)N[C@@H](CO)C(=O)N[C@@H](Cc1c[nH]cn1)C(=O)N[C@@H](CCCCN)C(=O)NCC(=O)N1CCCC[C@H]1C(=O)N[C@@H](CCCC)C(=O)N1CCC[C@@]1(C)C(=O)N[C@@H](Cc1ccc(Cl)cc1)C(=O)O)C(=O)O [compound 555] | < 1 | > 90
CCCCCCCCCCCCC(=O)N[C@@H](CCC(=O)NCCOCCOCC(=O)NCCOCCOCC(=O)N[C@@H](CCC(N)=O)C(=O)N[C@@H](CCCNC(=N)N)C(=O)N1CCC[C@H]1C(=O)N(C)[C@@H](CCCNC(=N)N)C(=O)N[C@@H](CC(C)C)C(=O)N[C@@H](CO)C(=O)N[C@H](CN[C@@H](CCCCN)C(=O)NCC(=O)N1CCC[C@H]1C(=O)N[C@@H](CCCC)C(=O)N1CCC[C@H]1C(=O)N[C@@H](Cc1ccc(Cl)cc1)C(=O)O)Cc1c[nH]cn1)C(=O)O [compound 469] | < 1 | 36
CCCCCCCCCCCCCCC(=O)N[C@@H](CCC(=O)NCCOCCOCC(=O)NCCOCCOCC(=O)N[C@@H](CCC(N)=O)C(=O)N[C@@H](CCCNC(=N)N)C(=O)N1CCC[C@H]1C(=O)N(C)[C@@H](CCCNC(=N)N)C(=O)N[C@@H](CC(C)C)C(=O)N[C@@H](CO)C(=O)N[C@@H](Cc1c[nH]cn1)C(=O)N[C@@H](CCCCN)C(=O)NCC(=O)N1CCC[C@H]1C(=O)N[C@@H](CCCC)C(=O)N1CCC[C@H]1C(=O)N[C@@H](Cc1ccc(Cl)cc1)C(=O)O)C(=O)O [compound 495] | < 1 | 75
CCCCCCCCCCCCC(=O)N[C@@H](CCC(=O)NCCOCCOCC(=O)NCCOCCOCC(=O)N[C@@H](CCC(N)=O)C(=O)N[C@@H](CCCCNC(=N)N)C(=O)N1CCC[C@H]1C(=O)N(C)[C@@H](CCCNC(=N)N)C(=O)N[C@H](CC(=O)N[C@@H](CO)C(=O)N[C@@H](Cc1c[nH]cn1)C(=O)N[C@@H](CCCCN)C(=O)NCC(=O)N1CCC[C@H]1C(=O)N[C@@H](CCCC)C(=O)N1CCC[C@H]1C(=O)N[C@@H](Cc1ccc(Cl)cc1)C(=O)O)C(C)C)C(=O)O [compound 383] ({Tridecanoyl-γGlu-AEEA-AEEA}-Q[hArg]P[NMeR][β3hV]SHKGP[Nle]P[Phe(4-Cl)]-OH) | < 1 | 31
CCCCCCCCCCCCC(=O)N[C@@H](CCC(=O)NCCOCCOCC(=O)NCCOCCOCC(=O)N[C@@H](CCC(N)=O)C(=O)N[C@@H](CCCNC(=N)N)C(=O)N1CCC[C@H]1C(=O)N(C)[C@@H](CCCNC(=N)N)C(=O)N[C@@H](CC(C)C)C(=O)NCCC(=O)N[C@@H](Cc1c[nH]cn1)C(=O)N[C@@H](CCCCN)C(=O)NCC(=O)N1CCC[C@H]1C(=O)N[C@@H](CCCC)C(=O)N1CCC[C@H]1C(=O)N[C@@H](Cc1ccc(Cl)cc1)C(=O)O)C(=O)O [compound 464] ({Tridecanoyl-γGlu-AEEA-AEEA}-QRP[NMeR]L[βAla]HKGP[Nle]P[Phe(4-Cl)]-OH) | < 1 | 21
CCCCCCCCCCCCC(=O)N[C@@H](CCC(=O)NCCOCCOCC(=O)NCCOCCOCC(=O)N[C@@H](CCC(N)=O)C(=O)N[C@@H](CCCNC(=N)N)C(=O)N1CCC[C@@]1(C)C(=O)N[C@@H](CCCCNC(=N)N)C(=O)N[C@@](C)(CC(C)C)C(=O)N[C@@H](CO)C(=O)N[C@@H](Cc1c[nH]cn1)C(=O)N[C@@H](CCCCN)C(=O)NCC(=O)N1CCC[C@H]1C(=O)N[C@@H](CCCC)C(=O)N1CCC[C@H]1C(=O)N[C@@H](Cc1ccc(Cl)cc1)C(=O)O)C(=O)O [compound 482] | < 1 | 62
CCCCCCCCCCCCC(=O)N[C@@H](CCC(=O)NCCOCCOCC(=O)NCCOCCOCC(=O)N[C@@H](CCC(N)=O)C(=O)N[C@H](CCCNC(=N)N)C(=O)N1CCC[C@H]1C(=O)N[C@@H](CCCCNC(=N)N)C(=O)N[C@@](C)(CC(C)C)C(=O)N[C@@H](CO)C(=O)N[C@@H](Cc1c[nH]cn1)C(=O)N[C@@H](CCCCN)C(=O)NCC(=O)N1CCC[C@H]1C(=O)N[C@@H](CCCC)C(=O)N1CCC[C@H]1C(=O)N[C@@H](Cc1ccc(Cl)cc1)C(=O)O)C(=O)O [compound 485] | < 1 | 74
CCCCCCCCCCCCC(=O)N[C@@H](CCC(=O)NCCOCCOCC(=O)NCCOCCOCC(=O)N[C@@H](CCC(N)=O)C(=O)N[C@@H](CCCCNC(=N)N)C(=O)N1CCC[C@H]1C(=O)N[C@@H](CCCCNC(=N)N)C(=O)N[C@@H](CC(C)C)C(=O)N[C@@H](CO)C(=O)N[C@@H](Cc1c[nH]cn1)C(=O)N[C@@H](CCCCN)C(=O)NCC(=O)N1CCC[C@H]1C(=O)N[C@@H](CCCC)C(=O)N1CCC[C@H]1C(=O)N[C@@H](Cc1ccc(Cl)cc1)C(=O)O)C(=O)O [compound 357] | 0 | 56
CCCCCCCCCCCCC(=O)N[C@@H](CCC(=O)NCCOCCOCC(=O)NCCOCCOCC(=O)N[C@@H](CCC(N)=O)C(=O)N[C@@H](CCCNC(=N)N)C(=O)N[C@@H](CCC(=O)O)C(=O)N(C)[C@@H](CCCNC(=N)N)C(=O)N[C@@H](CC(C)C)C(=O)N[C@@H](CO)C(=O)N[C@@H](Cc1c[nH]cn1)C(=O)N[C@@H](CCCCN)C(=O)NCC(=O)N1CCC[C@H]1C(=O)N[C@@H](CCCC)C(=O)N1CCC[C@H]1C(=O)N[C@@H](Cc1ccc(Cl)cc1)C(=O)O)C(=O)O [compound 476] | < 1 | 40
CCCC[C@H](NC(=O)[C@@H]1CCCN1C(=O)CNC(=O)[C@H](CCCCN)NC(=O)[C@H](Cc1c[nH]cn1)NC(=O)[C@H](CO)NC(=O)[C@H](CC1CCCCC1)NC(=O)[C@H](CCCNC(=N)N)N(C)C(=O)[C@@H]1CCCN1C(=O)[C@H](CCCNC(=N)N)NC(=O)[C@H](CCC(N)=O)NC(=O)[C@H](CCCNC(=N)N)NC(C)=O)C(=O)N1CCC[C@H]1C(=O)N[C@@H](Cc1ccc(Cl)cc1)C(=O)O [compound 66] (Ac-RQRP[NMeR][Cha]SHKGP[Nle]P[Phe(4-Cl)]-OH) | – | 2.4

— patent publication US11807693B2 (priority 2014, dated 2023)
